Series [1] can be described thus: physchem. Conditions: for solubility at 1 h: pH 7.4. As for the experimental part: 1 or 5 mg of pre-lyophilized peptide in 2 mL Eppendorf tube was treated with 200-400 uL of phosphate buffer (PBS: 50 mM sodium phosphate, 150 mM of sodium chloride, pH7.4). Samples were then vortexed and sonicated for 10 min then equilibrated at RT for 1H, and then centrifuged at 10 krpms for 10 min Concentration of the peptides in obtained supernatant was determined by measuring UV absorbance at λ=280 nm. […] Concentration in aliquots was reassessed as previously with UV absorbance. Change in peptide concentration was evaluated after 48 h and 7 days of storage at 4° C.

The target of series [2] is glucagon receptor (Homo sapiens, UniProt P47871). Description: Luciferase-based glucagon assay (cAMP reporter, HEK293 cells). Conditions: for EC50: read-out: EC50 [nM] (SDV), SDV in brackets; for EC50 / in vitro efficacy / potency (in words): luciferase-based glucagon assay; for % bioactivity of GCG: relative to native glucagon.
Protocol: At the end of the incubation 100 microliters of LucLite luminescence substrate reagent (Perkin-Elmer, Wellesley, Mass.) were added to each well. […] The luminescent light output indicates activation of the luciferase reporter gene, which in turn is a measure of the activation of the receptor.

Square brackets hold non-standard residues; d marks the D form. Peptide text beside a SMILES is read from it. 3Pal = N[C@@H](Cc1cccnc1)C(=O)O; Aib = CC(C)(N)C(=O)O Bounds are passed on as bounds.

Chain of glucagon receptor (P47871 26-477): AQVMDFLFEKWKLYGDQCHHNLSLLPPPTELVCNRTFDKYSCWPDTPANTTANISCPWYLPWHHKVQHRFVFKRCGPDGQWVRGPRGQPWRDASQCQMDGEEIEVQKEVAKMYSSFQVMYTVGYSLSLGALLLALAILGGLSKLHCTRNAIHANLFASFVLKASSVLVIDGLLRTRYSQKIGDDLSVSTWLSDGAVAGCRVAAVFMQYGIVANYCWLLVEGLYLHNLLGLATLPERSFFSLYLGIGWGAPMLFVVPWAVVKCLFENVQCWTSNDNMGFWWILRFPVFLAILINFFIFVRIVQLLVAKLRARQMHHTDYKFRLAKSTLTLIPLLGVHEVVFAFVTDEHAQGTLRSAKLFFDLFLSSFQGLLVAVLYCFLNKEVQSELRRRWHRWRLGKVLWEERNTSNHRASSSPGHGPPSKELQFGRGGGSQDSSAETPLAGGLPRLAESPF

In series [1], `CSCC[C@H](NC(=O)[C@H](CC(C)C)NC(=O)[C@H](Cc1c[nH]c2ccccc12)NC(=O)[C@H](CCC(N)=O)NC(=O)[C@@H](NC(=O)[C@H](Cc1cccnc1)NC(=O)[C@H](CC(=O)O)NC(=O)[C@H](CCC(N)=O)NC(=O)[C@H](C)NC(=O)[C@H](CCCNC(=N)N)NC(=O)[C@H](CCCNC(=N)N)NC(=O)C(C)(C)NC(=O)[C@H](CC(=O)O)NC(=O)[C@H](CC(C)C)NC(=O)[C@H](Cc1cccnc1)NC(=O)[C@H](CCCCN)NC(=O)[C@H](CO)NC(=O)[C@H](Cc1cccnc1)NC(=O)[C@H](CC(=O)O)NC(=O)[C@H](CO)NC(=O)[C@@H](NC(=O)[C@H](Cc1cccnc1)NC(=O)[C@@H](NC(=O)CNC(=O)[C@H](CCC(N)=O)NC(=O)[C@H](CO)NC(=O)[C@@H](N)Cc1cnc[nH]1)[C@@H](C)O)[C@@H](C)O)C(C)C)C(=O)N[C@@H](CC(N)=O)C(=O)N[C@H](C(=O)O)[C@@H](C)O` [Compound 11, HSQGTXTSDXSKXLDZRRAQDXVQWLMNT] (H-HSQGT[3Pal]TSD[3Pal]SK[3Pal]LD[Aib]RRAQD[3Pal]VQWLMNT-OH) showed a solubility at 1 h of more than 10000 µg/mL.

Take `CSCC[C@H](NC(=O)[C@H](CC(C)C)NC(=O)[C@H](Cc1c[nH]c2ccccc12)NC(=O)[C@H](CCC(N)=O)NC(=O)[C@@H](NC(=O)[C@H](Cc1ccccc1)NC(=O)[C@H](CC(=O)O)NC(=O)[C@H](CCC(N)=O)NC(=O)[C@H](C)NC(=O)[C@H](CCCNC(=N)N)NC(=O)[C@H](CCCNC(=N)N)NC(=O)C(C)(C)NC(=O)[C@H](CC(=O)O)NC(=O)[C@H](CC(C)C)NC(=O)[C@H](Cc1ccc(O)cc1)NC(=O)[C@H](CCCCN)NC(=O)[C@H](CO)NC(=O)[C@H](Cc1ccc(O)cc1)NC(=O)[C@H](CC(=O)O)NC(=O)[C@H](CO)NC(=O)[C@@H](NC(=O)[C@H](Cc1cccnc1)NC(=O)[C@@H](NC(=O)CNC(=O)[C@H](CCC(N)=O)NC(=O)[C@H](CO)NC(=O)[C@@H](N)Cc1c[nH]cn1)[C@@H](C)O)[C@@H](C)O)C(C)C)C(=O)N[C@@H](CC(N)=O)C(=O)N[C@H](C(=O)O)[C@@H](C)O` [Compound 3, HSQGTXTSDYSKYLDZRRAQDFVQWLMNT]: the solubility at 1 h in series [1] was more than 1000 µg/mL. In addition, in series [2], the EC50 is 0.017 nM and the “% bioactivity of GCG” value is listed as 119%.

In series [1], `CSCC[C@H](NC(=O)[C@H](CC(C)C)NC(=O)[C@H](Cc1c[nH]c2ccccc12)NC(=O)[C@H](CCC(N)=O)NC(=O)[C@@H](NC(=O)[C@H](Cc1ccccc1)NC(=O)[C@H](CC(=O)O)NC(=O)[C@H](CCC(N)=O)NC(=O)[C@H](C)NC(=O)[C@H](CCCNC(=N)N)NC(=O)[C@H](CCCNC(=N)N)NC(=O)C(C)(C)NC(=O)[C@H](CC(=O)O)NC(=O)[C@H](CC(C)C)NC(=O)[C@H](Cc1ccncc1)NC(=O)[C@H](CCCCN)NC(=O)[C@H](CO)NC(=O)[C@H](Cc1ccncc1)NC(=O)[C@H](CC(=O)O)NC(=O)[C@H](CO)NC(=O)[C@@H](NC(=O)[C@H](Cc1ccncc1)NC(=O)[C@@H](NC(=O)CNC(=O)[C@H](CCC(N)=O)NC(=O)[C@H](CO)NC(=O)[C@@H](N)Cc1c[nH]cn1)[C@@H](C)O)[C@@H](C)O)C(C)C)C(=O)N[C@@H](CC(N)=O)C(=O)N[C@H](C(=O)O)[C@@H](C)O` [Compound 10, HSQGTUTSDUSKULDZRRAQDFVQWLMNT] had a solubility at 1 h of more than 10000 µg/mL. Moreover, in series [2], the concentration for a half-maximal effect (EC50) was determined as 0.0843 nM and the “% bioactivity of GCG” value is 24%.

For the compound `CSCC[C@H](NC(=O)[C@H](CC(C)C)NC(=O)[C@H](Cc1c[nH]c2ccccc12)NC(=O)[C@H](CCC(N)=O)NC(=O)[C@@H](NC(=O)[C@H](Cc1ccccc1)NC(=O)[C@H](CC(=O)O)NC(=O)[C@H](CCC(N)=O)NC(=O)[C@H](C)NC(=O)[C@H](CCCNC(=N)N)NC(=O)[C@H](CCCNC(=N)N)NC(=O)C(C)(C)NC(=O)[C@H](CC(=O)O)NC(=O)[C@H](CC(C)C)NC(=O)[C@H](Cc1cccnc1)NC(=O)[C@H](CCCCN)NC(=O)[C@H](CO)NC(=O)[C@H](Cc1ccc(O)cc1)NC(=O)[C@H](CC(=O)O)NC(=O)[C@H](CO)NC(=O)[C@@H](NC(=O)[C@H](Cc1ccccc1)NC(=O)[C@@H](NC(=O)CNC(=O)[C@H](CCC(N)=O)NC(=O)[C@H](CO)NC(=O)[C@@H](N)Cc1c[nH]cn1)[C@@H](C)O)[C@@H](C)O)C(C)C)C(=O)N[C@@H](CC(N)=O)C(=O)N[C@H](C(=O)O)[C@@H](C)O` [Compound 5, HSQGTFTSDYSKXLDZRRAQDFVQWLMNT], the solubility at 1 h in series [1] is more than 1000 µg/mL. In series [2], the EC50 was 0.0379 nM and the “% bioactivity of GCG” value is 54%.

`CSCC[C@H](NC(=O)[C@H](CC(C)C)NC(=O)[C@H](Cc1c[nH]c2ccccc12)NC(=O)[C@H](CCC(N)=O)NC(=O)[C@@H](NC(=O)[C@H](Cc1cccnc1)NC(=O)[C@H](CC(=O)O)NC(=O)[C@H](CCC(N)=O)NC(=O)[C@H](C)NC(=O)[C@H](CCCNC(=N)N)NC(=O)[C@H](CCCNC(=N)N)NC(=O)C(C)(C)NC(=O)[C@H](CC(=O)O)NC(=O)[C@H](CC(C)C)NC(=O)[C@H](Cc1cccnc1)NC(=O)[C@H](CCCCN)NC(=O)[C@H](CO)NC(=O)[C@H](Cc1cccnc1)NC(=O)[C@H](CC(=O)O)NC(=O)[C@H](CO)NC(=O)[C@@H](NC(=O)[C@H](Cc1cccnc1)NC(=O)[C@@H](NC(=O)CNC(=O)[C@H](CCC(N)=O)NC(=O)[C@H](CO)NC(=O)[C@@H](N)Cc1c[nH]cn1)[C@@H](C)O)[C@@H](C)O)C(C)C)C(=O)N[C@@H](CC(N)=O)C(=O)N[C@H](C(=O)O)[C@@H](C)O` [Compound 11, HSQGTXTSDXSKXLDZRRAQDXVQWLMNT] (H-HSQGT[3Pal]TSD[3Pal]SK[3Pal]LD[Aib]RRAQD[3Pal]VQWLMNT-OH; N-terminus and C-terminus assumed): in series [2], the “in vitro efficacy / potency (in words)” value was “lower potency”, the EC50 was found to be 2.33 nM and the “% bioactivity of GCG” value was 1%.

In series [1] (pH 7), `CSCC[C@H](NC(=O)[C@H](CC(C)C)NC(=O)[C@H](Cc1c[nH]c2ccccc12)NC(=O)[C@H](CCC(N)=O)NC(=O)[C@@H](NC(=O)[C@H](Cc1ccccc1)NC(=O)[C@H](CC(=O)O)NC(=O)[C@H](CCC(N)=O)NC(=O)[C@H](C)NC(=O)[C@H](CCCNC(=N)N)NC(=O)[C@H](CCCNC(=N)N)NC(=O)C(C)(C)NC(=O)[C@H](CC(=O)O)NC(=O)[C@H](CC(C)C)NC(=O)[C@H](Cc1cccnc1)NC(=O)[C@H](CCCCN)NC(=O)[C@H](CO)NC(=O)[C@H](Cc1cccnc1)NC(=O)[C@H](CC(=O)O)NC(=O)[C@H](CO)NC(=O)[C@@H](NC(=O)[C@H](Cc1ccccc1)NC(=O)[C@@H](NC(=O)CNC(=O)[C@H](CCC(N)=O)NC(=O)[C@H](CO)NC(=O)[C@@H](N)Cc1c[nH]cn1)[C@@H](C)O)[C@@H](C)O)C(C)C)C(=O)N[C@@H](CC(N)=O)C(=O)N[C@H](C(=O)O)[C@@H](C)O` [Compound 7, HSQGTFTSDXSKXLDZRRAQDFVQWLMNT] returned a solubility of more than 10000 µg/mL. In addition, the solubility at 1 h in series [1] is more than 10000 µg/mL. Besides, in series [2], the “in vitro efficacy / potency (in words)” value is given as “fully potent”, the EC50 stood at 0.0359 nM and the “% bioactivity of GCG” value is on record as 57%.

In series [1], `CSCC[C@H](NC(=O)[C@H](CC(C)C)NC(=O)[C@H](Cc1c[nH]c2ccccc12)NC(=O)[C@H](CCC(N)=O)NC(=O)[C@@H](NC(=O)[C@H](Cc1ccccc1)NC(=O)[C@H](CC(=O)O)NC(=O)[C@H](CCC(N)=O)NC(=O)[C@H](C)NC(=O)[C@H](CCCNC(=N)N)NC(=O)[C@H](CCCNC(=N)N)NC(=O)C(C)(C)NC(=O)[C@H](CC(=O)O)NC(=O)[C@H](CC(C)C)NC(=O)[C@H](Cc1ccncc1)NC(=O)[C@H](CCCCN)NC(=O)[C@H](CO)NC(=O)[C@H](Cc1ccc(O)cc1)NC(=O)[C@H](CC(=O)O)NC(=O)[C@H](CO)NC(=O)[C@@H](NC(=O)[C@H](Cc1ccccc1)NC(=O)[C@@H](NC(=O)CNC(=O)[C@H](CCC(N)=O)NC(=O)[C@H](CO)NC(=O)[C@@H](N)Cc1c[nH]cn1)[C@@H](C)O)[C@@H](C)O)C(C)C)C(=O)N[C@@H](CC(N)=O)C(=O)N[C@H](C(=O)O)[C@@H](C)O` [Compound 6, HSQGTFTSDYSKULDZRRAQDFVQWLMNT] came in with a solubility at 1 h of more than 1000 µg/mL. For the same compound, in series [2], the 50% effective concentration (EC50) was 0.0339 nM and the “% bioactivity of GCG” value is 60%.

`CSCC[C@H](NC(=O)[C@H](CC(C)C)NC(=O)[C@H](Cc1c[nH]c2ccccc12)NC(=O)[C@H](CCC(N)=O)NC(=O)[C@@H](NC(=O)[C@H](Cc1ccccc1)NC(=O)[C@H](CC(=O)O)NC(=O)[C@H](CCC(N)=O)NC(=O)[C@H](C)NC(=O)[C@H](CCCNC(=N)N)NC(=O)[C@H](CCCNC(=N)N)NC(=O)C(C)(C)NC(=O)[C@H](CC(=O)O)NC(=O)[C@H](CC(C)C)NC(=O)[C@H](Cc1ccc(O)cc1)NC(=O)[C@H](CCCCN)NC(=O)[C@H](CO)NC(=O)[C@H](Cc1cccnc1)NC(=O)[C@H](CC(=O)O)NC(=O)[C@H](CO)NC(=O)[C@@H](NC(=O)[C@H](Cc1ccccc1)NC(=O)[C@@H](NC(=O)CNC(=O)[C@H](CCC(N)=O)NC(=O)[C@H](CO)NC(=O)[C@@H](N)Cc1c[nH]cn1)[C@@H](C)O)[C@@H](C)O)C(C)C)C(=O)N[C@@H](CC(N)=O)C(=O)N[C@H](C(=O)O)[C@@H](C)O` [Compound 4, HSQGTFTSDXSKYLDZRRAQDFVQWLMNT] showed a solubility at 1 h in series [1] of more than 1000 µg/mL. For the same compound, in series [2], the EC50 stood at 0.0268 nM and the “% bioactivity of GCG” value came out at 76%.

As usually defined, the solubility is how much of the substance goes into solution per volume. A word on the EC50: it is the concentration at which the effect is half-maximal.

The values above are taken from patent US10683334B2 (INDIANA UNIVERSITY RESEARCH AND TECHNOLOGY CORPORATION, priority 2016, dated 2020).
